Test results published in the supplement of paper PMC6045584.
± gives the standard deviation of the averaged measurements.

Key:
NUTLIN3 [1] = compound: T1, COc1ccc(C2=N[C@@H](c3ccc(Cl)cc3)[C@@H](c3ccc(Cl)cc3)N2C(=O)N2CCNC(=O)C2)c(OC(C)C)c1 [NUTLIN3]; assay: surviving fraction relative to DMSO-only wells; higher = less growth inhibition; conditions: exposure time: 5 days
Procedure, shortened: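 At 250–500 cells per well in 384-well plates, log-phase tumour cell lines were seeded and, 24 hours on, exposed continuously for five days to inhibitors at 0.5, 1, 5, 10, 50, 100, 500 and 1000 nM. Viability readout was CellTiter-Glo luminescence, reported as surviving fraction normalised to the median of DMSO-only wells.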

17-AAG = compound: C=CCNC1=C2C[C@@H](C)C[C@H](OC)[C@H](O)[C@@H](C)/C=C(\C)[C@H](OC(N)=O)[C@@H](OC)/C=C\C=C(/C)C(=O)NC(=CC1=O)C2=O [17-AAG]; assay: area under dose-response curve of surviving fraction (unscaled, Aref=0) (surviving fraction x log10(nM)); higher = more resistant; conditions: exposure time: 5 days; dose range 0.5-1000 nM
Procedure, shortened: (§1)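 Tumour cell lines in 384-well plates were exposed for five days to eight inhibitor concentrations from 0.5 to 1000 nM. Viability was read by CellTiter-Glo luminescence, normalised to DMSO-only wells, in three screens per line. Dose-response survival curves were fitted to surviving fractions by 3-parameter logistic regression in the drc R package. Area under the curve is the unscaled activity area (Aref = 0) over log10 dose.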

[2] = compound: CCN(CC)CCCCNc1ncc2cc(-c3cc(OC)cc(OC)c3)c(NC(=O)NC(C)(C)C)nc2n1; assay: as above; conditions: exposure time: 5 days; dose range 0.5-1000 nM
Procedure, shortened: as §1

SALINOMYCIN = compound: CC[C@@H](C(=O)[C@@H](C)[C@@H](O)[C@H](C)[C@@H]1O[C@@H]([C@@H](CC)C(=O)O)CC[C@@H]1C)[C@H]1O[C@]2(C=C[C@@H](O)[C@]3(CC[C@@](C)([C@H]4CC[C@](O)(CC)[C@H](C)O4)O3)O2)[C@H](C)C[C@@H]1C [SALINOMYCIN]; assay: as above; conditions: exposure time: 5 days; dose range 0.5-1000 nM
Procedure, shortened: as §1

ABT-737 = compound: CN(C)CC[C@H](CSc1ccccc1)Nc1ccc(S(=O)(=O)NC(=O)c2ccc(N3CCN(Cc4ccccc4-c4ccc(Cl)cc4)CC3)cc2)cc1[N+](=O)[O-] [ABT-737]; assay: as above; conditions: exposure time: 5 days; dose range 0.5-1000 nM
Procedure, shortened: as §1

FLAVOPIRIDOL = compound: CN1CC[C@H](c2c(O)cc(O)c3c(=O)cc(-c4ccccc4Cl)oc23)[C@H](O)C1 [FLAVOPIRIDOL]; assay: as above; conditions: exposure time: 5 days; dose range 0.5-1000 nM
Procedure, shortened: as §1

2-METHOXYESTRADIOL = compound: COc1cc2c(cc1O)CC[C@@H]1[C@@H]2CC[C@]2(C)[C@@H](O)CC[C@@H]12 [2-METHOXYESTRADIOL]; assay: as above; conditions: exposure time: 5 days; dose range 0.5-1000 nM
Procedure, shortened: as §1

NUTLIN3 [3] = compound: T1, NUTLIN3; assay: as above; conditions: exposure time: 5 days; dose range 0.5-1000 nM
Procedure, shortened: as §1

DOXORUBICIN = compound: COc1cccc2c1C(=O)c1c(O)c3c(c(O)c1C2=O)C[C@@](O)(C(=O)CO)C[C@@H]3O[C@H]1C[C@H](N)[C@H](O)[C@H](C)O1 [DOXORUBICIN]; assay: as above; conditions: exposure time: 5 days; dose range 0.5-1000 nM
Procedure, shortened: as §1

VISMODEGIB = compound: CS(=O)(=O)c1ccc(C(=O)Nc2ccc(Cl)c(-c3ccccn3)c2)c(Cl)c1 [VISMODEGIB]; assay: as above; conditions: exposure time: 5 days; dose range 0.5-1000 nM
Procedure, shortened: as §1

DECITABINE = compound: Nc1ncn([C@H]2C[C@H](O)[C@@H](CO)O2)c(=O)n1 [DECITABINE]; assay: as above; conditions: exposure time: 5 days; dose range 0.5-1000 nM
Procedure, shortened: as §1

RESVERATROL = compound: Oc1ccc(/C=C/c2cc(O)cc(O)c2)cc1 [RESVERATROL]; assay: as above; conditions: exposure time: 5 days; dose range 0.5-1000 nM
Procedure, shortened: as §1

FLUOROURACIL = compound: O=c1[nH]cc(F)c(=O)[nH]1 [FLUOROURACIL]; assay: as above; conditions: exposure time: 5 days; dose range 0.5-1000 nM
Procedure, shortened: as §1

Test System | surviving fraction (NUTLIN3 [1]; 0.5 nM) | surviving fraction (NUTLIN3 [1]; 1 nM) | surviving fraction (NUTLIN3 [1]; 5 nM) | surviving fraction (NUTLIN3 [1]; 10 nM) | surviving fraction (NUTLIN3 [1]; 50 nM) | surviving fraction (NUTLIN3 [1]; 100 nM) | surviving fraction (NUTLIN3 [1]; 500 nM) | surviving fraction (NUTLIN3 [1]; 1000 nM) | area under dose-response curve (17-AAG) | area under dose-response curve [2] | area under dose-response curve (SALINOMYCIN) | area under dose-response curve (ABT-737) | area under dose-response curve (FLAVOPIRIDOL) | area under dose-response curve (2-METHOXYESTRADIOL) | area under dose-response curve (NUTLIN3 [3]) | area under dose-response curve (DOXORUBICIN) | area under dose-response curve (VISMODEGIB) | area under dose-response curve (DECITABINE) | area under dose-response curve (RESVERATROL) | area under dose-response curve (FLUOROURACIL)
NY BONE | 1 ± 0.019 | 0.95 ± 0.034 | 0.997 ± 0.033 | 1.015 ± 0.0098 | 1.05 ± 0.048 | 1.01 ± 0.034 | 0.925 ± 0.036 | 0.972 ± 0.012 | 1.6 | 2.65 | 2.53 | 3.42 | 2.12 | 2.83 | 3.28 | 1.85 | 3.28 | 2.91 | 3.32 | –
OS25HAL BONE | 0.975 ± 0.014 | 0.998 ± 0.018 | 0.979 ± 0.013 | 0.974 ± 0.03 | 1.06 ± 0.0081 | 1.064 ± 0.0045 | 1.052 ± 0.0056 | 1.06 ± 0.013 | 2.56 | 3.27 | 2.57 | 3.39 | 2.25 | 3.02 | 3.29 | 1.87 | 3.29 | 3.53 | 3.4 | –
OSHN BONE | 1.06 ± 0.036 | 1.05 ± 0.057 | 1.06 ± 0.034 | 1.05 ± 0.044 | 1.09 ± 0.058 | 1.07 ± 0.033 | 1.08 ± 0.034 | 1.07 ± 0.029 | 2.3 | 3.35 | 2.81 | 3.58 | 2.31 | 3.21 | 3.52 | 1.98 | 3.27 | 3.71 | 3.6 | –
SG28 HEADNECK | 1.13 ± 0.065 | 1.03 ± 0.14 | 1.02 ± 0.12 | 1.07 ± 0.12 | 1.03 ± 0.14 | 1.02 ± 0.085 | 1.01 ± 0.11 | 0.919 ± 0.1 | 1.95 | 3.28 | 2.71 | – | – | – | 3.29 | 2.4 | 3 | – | – | –
SG31 HEADNECK | 1.08 ± 0.067 | 1.05 ± 0.2 | 1.06 ± 0.12 | 0.921 ± 0.035 | 0.854 ± 0.13 | 1.11 ± 0.23 | 0.906 ± 0.038 | 0.92 ± 0.057 | 1.94 | 3.09 | 2.81 | 3.88 | 2.03 | 3.42 | 3.23 | 2.02 | 3.05 | – | – | –
SG32 HEADNECK | 1.27 ± 0.11 | 1.14 ± 0.29 | 1 ± 0.13 | 1.12 ± 0.095 | 1.18 ± 0.035 | 1.31 ± 0.45 | 0.895 ± 0.29 | 0.61 ± 0.07 | 1.96 | 3.36 | 2.42 | 3.48 | 1.72 | 2.92 | 3.75 | 1.68 | – | – | 3.38 | –
SIHA CERVIX | 1.05 ± 0.062 | 0.991 ± 0.053 | 1.01 ± 0.12 | 1.07 ± 0.071 | 1.05 ± 0.073 | 1.2 ± 0.05 | 1.11 ± 0.15 | 1.14 ± 0.11 | 2.23 | 3.08 | 2.93 | 3.73 | 2.19 | 3.15 | 3.54 | 2.16 | – | 3.46 | 3.61 | –
SJSA1 BONE | 1 ± 0.048 | 0.997 ± 0.041 | 1.05 ± 0.053 | 1 ± 0.064 | 1.03 ± 0.023 | 1.04 ± 0.02 | 0.823 ± 0.011 | 0.568 ± 0.027 | 1.72 | 3.48 | 2.91 | 5.63 | 2.96 | 5.58 | 3.18 | 1.9 | 3.35 | 4.52 | 5.61 | –
SUM44 BREAST | 0.96 ± 0.028 | 0.915 ± 0.056 | 1.02 ± 0.03 | 1.04 ± 0.051 | 1.09 ± 0.055 | 1.06 ± 0.017 | 1.07 ± 0.084 | 0.964 ± 0.063 | 2.02 | 3.27 | 3.22 | – | 2.36 | – | 3.26 | 2.59 | 3.11 | 3.87 | 3.94 | 3.15
SUM149.B1*.S BREAST | 1.03 ± 0.045 | 1.07 ± 0.0015 | 1.05 ± 0.011 | 1.07 ± 0.022 | 1.13 ± 0.037 | 1.12 ± 0.017 | 1.14 ± 0.024 | 1.11 ± 0.04 | 1.93 | – | 2.9 | 3.79 | 2.37 | 3.49 | 3.61 | 2 | – | – | 3.7 | –
SUM159 BREAST | 1.07 ± 0.059 | 1.05 ± 0.04 | 0.982 ± 0.076 | 0.991 ± 0.041 | 1.03 ± 0.027 | 0.998 ± 0.08 | 0.946 ± 0.17 | 0.916 ± 0.25 | 1.72 | 3.75 | 2.31 | – | 2.38 | 3.24 | 3.27 | 1.84 | – | 3.48 | 3.53 | 3.29
VCAP PROSTATE | 1.03 ± 0.066 | 1.13 ± 0.049 | 1.17 ± 0.088 | 1.25 ± 0.2 | 1.18 ± 0.24 | 1.18 ± 0.023 | 1.03 ± 0.14 | 1.11 ± 0.027 | 2.25 | 3.48 | 2.89 | 3.49 | 2.26 | 3.12 | 3.78 | 2.3 | 3.36 | 3.68 | 3.11 | –
ZR751 BREAST | 1.26 ± 0.29 | 1.24 ± 0.11 | 1.02 ± 0.18 | 1.1 ± 0.011 | 1.11 ± 0.054 | 1.08 ± 0.23 | 0.786 ± 0.083 | 0.747 ± 0.024 | 1.74 | 3.3 | 2.67 | 3.53 | 2.38 | – | – | 2.06 | 2.87 | – | 3.31 | –
